In paper PMC5434554, “Structural similarities and functional differences clarify evolutionary relationships between tRNA healing enzymes and the myelin enzyme CNPase” (BMC Biochemistry, 2017):

Tests used:
Assay in all cases: thermal shift assay, SYPRO Orange
Assay type in all cases: binding
ScTrl1 PNK/CPDase = molecular target: T1, ScTrl1 PNK/CPDase (Saccharomyces cerevisiae, UniProt P09880); details: 1000 µM; 50 mM HEPES pH 7.5, 150 mM NaCl, 1 mM ligand; ligand-free reference in the 1st table, row 3
T1 construct: gene TRL1; PNK + CPDase domains of Trl1 (C-terminal part, ligase domain absent); N-terminal His6-3C tag cleaved; E. coli Rosetta(DE3); monomer
T1 sequence (P09880 389-827 limits assumed): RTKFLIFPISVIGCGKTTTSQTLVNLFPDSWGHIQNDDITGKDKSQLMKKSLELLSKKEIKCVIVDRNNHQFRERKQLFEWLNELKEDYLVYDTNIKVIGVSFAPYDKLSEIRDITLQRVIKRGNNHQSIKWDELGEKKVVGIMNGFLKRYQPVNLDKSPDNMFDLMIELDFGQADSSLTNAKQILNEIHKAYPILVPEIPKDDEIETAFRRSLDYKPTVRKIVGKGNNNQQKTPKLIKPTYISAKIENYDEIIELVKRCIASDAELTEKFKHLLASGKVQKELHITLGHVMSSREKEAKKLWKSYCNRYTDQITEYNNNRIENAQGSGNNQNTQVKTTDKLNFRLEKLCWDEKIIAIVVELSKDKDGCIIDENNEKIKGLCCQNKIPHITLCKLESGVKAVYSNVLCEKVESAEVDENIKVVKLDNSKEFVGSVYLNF
Text: thermal shift assay, SYPRO Orange on ScTrl1 PNK/CPDase

ScTrl1 CPDase = molecular target: T2, ScTrl1 CPDase (Saccharomyces cerevisiae, UniProt P09880); details: 1000 µM; 50 mM HEPES pH 7.5, 150 mM NaCl, 1 mM ligand; ligand-free reference in the 1st table, row 6
T2 construct: gene TRL1; not the N+ or N- variants; N-terminal His6-3C tag cleaved; E. coli Rosetta(DE3); monomer
T2 sequence (P09880 561-827 limits assumed): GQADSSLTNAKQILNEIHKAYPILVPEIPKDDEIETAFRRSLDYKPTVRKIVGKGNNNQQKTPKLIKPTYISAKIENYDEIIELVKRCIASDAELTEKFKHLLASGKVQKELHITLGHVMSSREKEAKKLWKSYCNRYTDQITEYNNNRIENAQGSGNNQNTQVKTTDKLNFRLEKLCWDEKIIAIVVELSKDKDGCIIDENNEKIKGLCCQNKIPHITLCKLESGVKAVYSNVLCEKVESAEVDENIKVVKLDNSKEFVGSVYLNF
Text: thermal shift assay, SYPRO Orange on ScTrl1 CPDase

BfPNK/CPDase = molecular target: T3, BfPNK/CPDase (Branchiostoma floridae, UniProt A0A9J7HK91); details: 1000 µM; 50 mM HEPES pH 7.5, 150 mM NaCl, 1 mM ligand; ligand-free reference in the 1st table, row 9
T3 construct: gene LOC118405679; full length; N-terminal His6-3C tag cleaved; from E. coli Rosetta(DE3); monomer under reducing conditions
T3 sequence (A0A9J7HK91 entry or part of it): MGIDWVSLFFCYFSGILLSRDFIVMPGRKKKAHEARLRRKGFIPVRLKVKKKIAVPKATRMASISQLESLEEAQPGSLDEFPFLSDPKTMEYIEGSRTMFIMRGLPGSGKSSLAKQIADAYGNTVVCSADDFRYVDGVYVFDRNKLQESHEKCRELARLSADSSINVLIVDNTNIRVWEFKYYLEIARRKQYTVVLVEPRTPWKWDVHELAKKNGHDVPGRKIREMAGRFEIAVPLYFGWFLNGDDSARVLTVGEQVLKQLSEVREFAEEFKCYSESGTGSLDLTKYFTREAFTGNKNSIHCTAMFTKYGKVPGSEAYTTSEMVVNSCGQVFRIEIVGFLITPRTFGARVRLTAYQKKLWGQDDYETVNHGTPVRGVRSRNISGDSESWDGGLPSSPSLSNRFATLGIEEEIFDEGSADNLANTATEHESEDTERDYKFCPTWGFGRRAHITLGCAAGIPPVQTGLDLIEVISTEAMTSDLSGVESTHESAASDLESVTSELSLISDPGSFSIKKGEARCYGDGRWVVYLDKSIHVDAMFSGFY
Text: thermal shift assay, SYPRO Orange on BfPNK/CPDase

Tm (°C) (ScTrl1 PNK/CPDase): 63 °C | Tm (°C) (ScTrl1 CPDase): 72 °C | Tm (°C) (BfPNK/CPDase): 48 °C
SMILES: NC(=O)c1ccc[n+]([C@@H]2O[C@H](COP(=O)(O)OP(=O)(O)OC[C@H]3O[C@@H](n4cnc5c(N)ncnc54)[C@@H]4OP(=O)(O)O[C@@H]43)[C@@H](O)[C@H]2O)c1 [2′,3′-cNADP^+]
